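How tested: cells in 96-well plates exposed to compound for 48 hours at five concentrations. Abbreviation: GI50, concentration required for 50% inhibition of growth.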 Activity calls are given as the source filed them. No stated cut-off is given here; in the data, active = GI50 up to about 1.1 µM and inactive = higher.
Legend:
Test in all cases: NCI anticancer screen, dose series, 48 h
SF-539 = system: SF-539
SW-620 = system: SW-620
K562 = system: K562
SF-268 = system: SF-268
A549 = system: A549
Malme-3M = system: Malme-3M
HOP-62 = system: HOP-62
CCRF-CEM = system: CCRF-CEM
CAKI-1 = system: CAKI-1
SNB-19 = system: SNB-19
COLO 205 = system: COLO 205
NCI-H460 = system: NCI-H460
DLD-1 = system: DLD-1
HCC 2998 = system: HCC 2998
SK-MEL-5 = system: SK-MEL-5
T47D = system: T47D
HCT-15 = system: HCT-15
BT-549 = system: BT-549
RXF 393 = system: RXF 393
HOP-92 = system: HOP-92

Row | Structure (SMILES) | GI50 (SF-539) | GI50 (SW-620) | GI50 (K562) | GI50 (SF-268) | GI50 (A549) | GI50 (Malme-3M) | GI50 (HOP-62) | GI50 (CCRF-CEM) | GI50 (CAKI-1) | GI50 (SNB-19) | GI50 (COLO 205) | GI50 (NCI-H460) | GI50 (DLD-1) | GI50 (HCC 2998) | GI50 (SK-MEL-5) | GI50 (T47D) | GI50 (HCT-15) [µM] | GI50 (BT-549) | GI50 (RXF 393) | GI50 (HOP-92)
1 | COc1ccc(N2C(=O)/C(=C(\C)c3cc4ccccc4oc3=O)N=C2c2cc([N+](=O)[O-])ccc2Cl)cc1 | 29.9 µM (inactive) | 33.9 µM (inactive) | 10.8 µM (inactive) | 28.7 µM (inactive) | 34.9 µM (inactive) | 45.2 µM (inactive) | > 100 µM (inactive) | 32.5 µM (inactive) | 29.6 µM (inactive) | 32.7 µM (inactive) | 43.9 µM (inactive) | 41.9 µM (inactive) | 54.7 µM (inactive) | 43.5 µM (inactive) | 30.6 µM (inactive) | – | – | – | – | –
2 | O=c1cnn(C/C=C/CBr)c(=O)[nH]1 | 16.1 µM (inactive) | 13.6 µM (inactive) | 21.4 µM (inactive) | 17.1 µM (inactive) | 16.8 µM (inactive) | 16.4 µM (inactive) | 17.9 µM (inactive) | 15.2 µM (inactive) | 12.9 µM (inactive) | 24.7 µM (inactive) | 18.8 µM (inactive) | 17.2 µM (inactive) | – | 18.5 µM (inactive) | 13.1 µM (inactive) | 19.1 µM (inactive) | 18.2 | 0.527 µM (active) | 15.5 µM (inactive) | 14.6 µM (inactive)
3 | C/C(=N/NS(=O)(=O)c1c(C)cc(C)cc1C)c1cccc[n+]1[O-] | > 100 µM (inactive) | > 100 µM (inactive) | > 100 µM (inactive) | > 100 µM (inactive) | > 100 µM (inactive) | – | > 100 µM (inactive) | > 100 µM (inactive) | > 100 µM (inactive) | > 100 µM (inactive) | – | > 100 µM (inactive) | > 100 µM (inactive) | > 100 µM (inactive) | > 100 µM (inactive) | – | > 100 | – | – | > 100 µM (inactive)
4 | COc1ccc(/N=N/C(C(=O)c2ccccc2)C(=O)c2ccccc2)cc1 | 25.4 µM (inactive) | 19.3 µM (inactive) | 19.1 µM (inactive) | 23.8 µM (inactive) | 21.3 µM (inactive) | 24.9 µM (inactive) | 23.3 µM (inactive) | 8 µM (inactive) | 32.5 µM (inactive) | 17.7 µM (inactive) | 42.1 µM (inactive) | 18.6 µM (inactive) | 23.9 µM (inactive) | 44.7 µM (inactive) | 14.1 µM (inactive) | – | 15.1 | – | – | –
5 | O=C(CCCC1Cc2ccccc2C1=O)c1ccccc1 (stereo unspecified) | > 100 µM (inactive) | > 100 µM (inactive) | 39.8 µM (inactive) | > 100 µM (inactive) | 50 µM (inactive) | 44.2 µM (inactive) | > 100 µM (inactive) | 66.5 µM (inactive) | > 100 µM (inactive) | 89.9 µM (inactive) | 93.8 µM (inactive) | 89.9 µM (inactive) | – | > 100 µM (inactive) | 35.6 µM (inactive) | 33.3 µM (inactive) | 74.8 | 38.6 µM (inactive) | 52.5 µM (inactive) | 62.8 µM (inactive)
6 | S=c1ssc2c3ssc(=S)c3n(Cc3ccccc3)c12 | 21.3 µM (inactive) | > 100 µM (inactive) | 40.9 µM (inactive) | 59.2 µM (inactive) | > 100 µM (inactive) | > 100 µM (inactive) | > 100 µM (inactive) | 17.2 µM (inactive) | > 100 µM (inactive) | > 100 µM (inactive) | > 100 µM (inactive) | > 100 µM (inactive) | – | > 100 µM (inactive) | > 100 µM (inactive) | 22.3 µM (inactive) | 39.3 | > 100 µM (inactive) | 0.494 µM (active) | > 100 µM (inactive)
7 | CN1COCN/C1=N/C#N | > 100 µM (inactive) | > 100 µM (inactive) | > 100 µM (inactive) | > 100 µM (inactive) | > 100 µM (inactive) | > 100 µM (inactive) | > 100 µM (inactive) | > 100 µM (inactive) | > 100 µM (inactive) | > 100 µM (inactive) | > 100 µM (inactive) | > 100 µM (inactive) | > 100 µM (inactive) | > 100 µM (inactive) | – | – | > 100 | – | – | –
8 | CC(C)CC1NC(=O)C(C(C)C)NC(=O)CC(C)COC(=O)C(CC(C)C)N(C)C(=O)C(C(C)C)NC(=O)C(C(C)C)OC1=O (stereo unspecified) | 8.28 µM (inactive) | > 50 µM (inactive) | > 50 µM (inactive) | > 50 µM (inactive) | > 50 µM (inactive) | > 50 µM (inactive) | 15.2 µM (inactive) | 15.2 µM (inactive) | 48.9 µM (inactive) | 17.1 µM (inactive) | > 50 µM (inactive) | > 50 µM (inactive) | – | > 50 µM (inactive) | > 50 µM (inactive) | > 50 µM (inactive) | > 50 | > 50 µM (inactive) | 16.1 µM (inactive) | 26.5 µM (inactive)
9 | CNC(=O)N(C1=NCC(C)S1)c1ccc(C)c(C)c1 (stereo unspecified) | 2.62 µM (inactive) | 3.48 µM (inactive) | 0.923 µM (active) | 4.37 µM (inactive) | 6.52 µM (inactive) | 4.15 µM (inactive) | 5.98 µM (inactive) | 2.39 µM (inactive) | 2.7 µM (inactive) | 6.64 µM (inactive) | 3.56 µM (inactive) | 3.36 µM (inactive) | – | 4.28 µM (inactive) | 4.08 µM (inactive) | 7.33 µM (inactive) | 2.77 | 27.3 µM (inactive) | 2.46 µM (inactive) | 5.78 µM (inactive)
10 | O=C1C2CC[C@@H]3C(=O)C(Cl)(Cl)[C@@H]3CCC2C1(Cl)Cl (stereo partly specified) | > 44.4 µM (inactive) | > 100 µM (inactive) | 44.8 µM (inactive) | > 100 µM (inactive) | > 100 µM (inactive) | > 100 µM (inactive) | 3.24 µM (inactive) | 23.3 µM (inactive) | > 100 µM (inactive) | > 100 µM (inactive) | 71 µM (inactive) | > 100 µM (inactive) | – | > 100 µM (inactive) | > 100 µM (inactive) | > 100 µM (inactive) | 98.6 | > 100 µM (inactive) | > 87.7 µM (inactive) | > 100 µM (inactive)
11 | CCOC(=O)C1=C(Nc2ccc(Cl)cc2Cl)OCC1=O | > 100 µM (inactive) | > 100 µM (inactive) | > 100 µM (inactive) | > 100 µM (inactive) | > 100 µM (inactive) | > 100 µM (inactive) | > 100 µM (inactive) | – | > 100 µM (inactive) | > 100 µM (inactive) | > 100 µM (inactive) | > 100 µM (inactive) | > 100 µM (inactive) | > 100 µM (inactive) | – | – | > 100 | – | – | > 100 µM (inactive)
12 | C=C1C(=O)[C@@]23CC[C@H]4[C@@](C)(CCC[C@@]4(C)C(=O)OC)[C@@H]2CC[C@]1(O)C3 | 1.76 µM (inactive) | 0.624 µM (active) | 0.604 µM (active) | 1.9 µM (inactive) | 3.1 µM (inactive) | – | 20.2 µM (inactive) | 0.2 µM (active) | 1.55 µM (inactive) | 13 µM (inactive) | 1.72 µM (inactive) | 3.58 µM (inactive) | 0.32 µM (active) | 2.82 µM (inactive) | 1.93 µM (inactive) | – | 1.26 | – | – | 1.78 µM (inactive)

Source: ChEMBL document CHEMBL1201862, “PubChem BioAssay data set” (2004)
